{
  "source": "patent US10292972B1",
  "about": "“Pharmaceutical composition for treating cancer and a method thereof” (King Abdulaziz University, priority 2017, dated 2019)",
  "test_system": "MCF7 breast cancer cells",
  "assay": "RNA-Seq gene expression profiling of isopicrinine-treated MCF7 cells",
  "assay_type": "cell-based, human",
  "conditions": "for number of upregulated genes / number of downregulated genes: vs DMSO-treated control, P value <0.05; for number of downregulated genes: fold change <−1",
  "description": "MCF7 cells (1.6×10^5 cells) were treated with varying doses (sub-lethal) of purified isopicrinine i.e., 30 μM and 150 μM, in triplicates, for 18 hrs at 37° C. Total RNA was extracted using TRIzol reagent. Gene expression analyses of drug-treated MCF7 cells in the presence of sub-lethal concentrations of isopicrinine were performed using Illumina HiSeq. Each RNA was ribo-depleted (Ribo-Zero, Epicentre) prior to cDNA libarary preparation (ScriptSeq epicenter). Each cDNA was separately barcode tagged during library preparation, and sequenced in multiplex generating approximately >40 million 100 bp reads per sample for the mammalian cell line. The Illumina reads were mapped to their respective assembled reference transcriptome sequence using the mapping software TopHat and Cufflinks (Trapnell, C., Pachter, L., Salzberg, S. L. 2009. TopHat: discovering splice junctions with RNA-Seq. Bioinformatics, May 1; 25(9):1105-11. doi: 10.1093/bioinformatics/btp120, incorporated herein by reference in its entirety). Illumina read abundances mapping to each reference contig was normalized using the RPKM (reads per Kb per million reads) calculation. Differentially expressed transcripts were identified and functionally annotated using a variety of statistical analyses available via bioconductor in R language (Durinck, S., Moreau, Y., Kasprzyk, A., Davis, S., De Moor, B., Brazma, A., Huber, W. 2005. BioMart and Bioconductor: a powerful link between biological databases and microarray data analysis. Bioinformatics, 21(16), 3439-3440. doi: 10.1093/bioinformatics/bti525, incorporated herein by reference in its entirety). Clusters of differentially expressed and cycling transcripts were annotated to identify over-represented GO/KEGG pathways (Kanehisa, M., Goto, S., Sato, Y., Furumichi, M., Tanabe, M., 2012. KEGG for integration and interpretation of large-scale molecular data sets. Nucleic Acids Res., 40 (Database issue), D109-14. doi: 10.1093/nar/gkr988, incorporated herein by reference in its entirety).\nMCF7 cell line was treated with sub-lethal doses of 30 μM and 150 μM of isopicrinine. […] RNA-Seq transcription profiling was performed for analyzing the transcriptome profile in alkaloid treated MCF7 cells in order to evaluate the pharmacological effects of the new alkaloid isolated from Rhazya stricta. To identify the differentially regulated/expressed genes after treatment with isopicrinine, RNA was extracted from alkaloid treated MCF7 cells (30 μM and 150 μM doses) and DMSO-treated control cells and RNA-Seq experiment was carried out. The sequencing data were compared and analyzed to identify the differentially expressed genes in mammalian cells after treatment with isopicrinine.",
  "key": {"[1]": {"conditions": "MCF7, vs DMSO control, Cell divsion, dose not given"}, "[2]": {"conditions": "MCF7, vs DMSO control, Chromosone Organization, dose not given"}, "[3]": {"conditions": "MCF7, vs DMSO control, Cytoskeleton, dose not given"}, "[4]": {"conditions": "MCF7, vs DMSO control, DNA repair, dose not given"}},
  "data": [
    {"smiles": "C/C=C1\\CN2[C@H]3C[C@@H]1[C@@H](C(=O)OC)[C@]14C[C@H]2O[C@]31Nc1ccccc14", "note": "[isopicrinine]", "values": [
      {"measurement": "expression of Mxi1 gene", "setting": "MCF7", "value": "significantly upregulated"},
      {"measurement": "expression of cell cycle and cell proliferation genes (CDC6, CDK1, CDCA5, DLGAP5, NUSAP1, KIF23, PRC1, BIRC5, AURKB, NDC80, CDC45)", "setting": "MCF7, 30 μM", "value": "not affected"},
      {"measurement": "cytotoxicity at sub-lethal doses", "setting": "MCF7, 30 μM and 150 μM, 18 hrs", "value": "No cytotoxicity was detected"},
      {"measurement": "number of upregulated genes", "setting": "MCF7, 30 μM", "value": 148, "unit": "genes"},
      {"measurement": "number of downregulated genes", "setting": "MCF7, 30 μM", "value": 64, "unit": "genes"},
      {"measurement": "expression of cell cycle and cell proliferation genes (CDC6, CDK1, CDCA5, DLGAP5, NUSAP1, KIF23, PRC1, BIRC5, AURKB, NDC80, CDC45)", "setting": "MCF7, 150 μM", "value": "significantly downregulated"},
      {"measurement": "number of downregulated genes", "setting": "MCF7, 150 μM", "value": 59, "unit": "genes"},
      {"measurement": "number of upregulated genes", "setting": "MCF7, 150 μM, fold change >1", "value": 36, "unit": "genes"},
      {"measurement": "expression of cell division and mitosis genes (PTTG1, DLGAP5, Cdc6, NDC80, KIF15, KIF23, PRC1, NUSAP1, Aurora B kinase, CDCA5, ATAD2)", "setting": "MCF7, high dose", "value": "downregulated"},
      {"measurement": "expression of pro-apoptotic gene PUMA (BBC3)", "setting": "MCF7, sub-lethal dose, FIG. 5", "value": "upregulated"},
      {"measurement": "expression of survivin (BIRC5)", "setting": "MCF7, sub-lethal doses", "value": "Downregulation"},
      {"measurement": "log2 (fold change) ASPM", "setting": "[1]", "value": "−1.3045"},
      {"measurement": "log2 (fold change) AURKB", "setting": "[1]", "value": "−1.646"},
      {"measurement": "log2 (fold change) BIRC5", "setting": "[1]", "value": "−0.9572"},
      {"measurement": "log2 (fold change) CDC6", "setting": "[1]", "value": "−2.322"},
      {"measurement": "log2 (fold change) CDCA5", "setting": "[1]", "value": "−1.551"},
      {"measurement": "log2 (fold change) CDK1", "setting": "[1]", "value": "−1.149"},
      {"measurement": "log2 (fold change) FBXO5", "setting": "[1]", "value": "−1.067"},
      {"measurement": "log2 (fold change) KIF23", "setting": "[1]", "value": "−0.905"},
      {"measurement": "log2 (fold change) NCAPG", "setting": "[1]", "value": "−1.314"},
      {"measurement": "log2 (fold change) NCAPH", "setting": "[1]", "value": "−1.018"},
      {"measurement": "log2 (fold change) NDC80", "setting": "[1]", "value": "−1.343"},
      {"measurement": "log2 (fold change) NUSAP1", "setting": "[1]", "value": "−1.539"},
      {"measurement": "log2 (fold change) PRC1", "setting": "[1]", "value": "−1.527"},
      {"measurement": "log2 (fold change) PTTG1", "setting": "[1]", "value": "−1.05"},
      {"measurement": "log2 (fold change) SGOL1", "setting": "[1]", "value": "−1.044"},
      {"measurement": "log2 (fold change) DLGAP5", "setting": "[2]", "value": "−1.263"},
      {"measurement": "log2 (fold change) ESPL1", "setting": "[2]", "value": "−1.9647"},
      {"measurement": "log2 (fold change) H2AFZ", "setting": "[2]", "value": "−0.952"},
      {"measurement": "log2 (fold change) HIST1H1B", "setting": "[2]", "value": "−2.278"},
      {"measurement": "log2 (fold change) HIST1H2AJ, HIST1H2AK", "setting": "[2]", "value": "−2.034"},
      {"measurement": "log2 (fold change) HIST1H2AM, HIST1H3J", "setting": "[2]", "value": "−2.034"},
      {"measurement": "log2 (fold change) HIST1H2BL", "setting": "[2]", "value": "−2.032"},
      {"measurement": "log2 (fold change) HIST2H2AA4, HIST2H2AC", "setting": "[2]", "value": "−1.505"},
      {"measurement": "log2 (fold change) HIST2H2AB", "setting": "[2]", "value": "−2.144"},
      {"measurement": "log2 (fold change) HIST2H2BF", "setting": "[2]", "value": "−1.757"},
      {"measurement": "log2 (fold change) HIST2H3C", "setting": "[2]", "value": "−2.716"},
      {"measurement": "log2 (fold change) HIST2H3PS2", "setting": "[2]", "value": "−1.3321"},
      {"measurement": "log2 (fold change) HIST2H4A", "setting": "[2]", "value": "−2.138"},
      {"measurement": "log2 (fold change) AGBL2", "setting": "[3]", "value": 2.627},
      {"measurement": "log2 (fold change) DLG2", "setting": "[3]", "value": 2.268},
      {"measurement": "log2 (fold change) DRP2", "setting": "[3]", "value": 2.047},
      {"measurement": "log2 (fold change) KRT81", "setting": "[3]", "value": 1.797},
      {"measurement": "log2 (fold change) PTP4A1", "setting": "[3]", "value": 1.331},
      {"measurement": "log2 (fold change) BRCA1", "setting": "[4]", "value": "−1.076"},
      {"measurement": "log2 (fold change) EXO1", "setting": "[4]", "value": "−1.784"}
    ]}
  ]
}
